The results in this text go back to US11447466B2, “Substituted indole compounds useful as inhibitors of TLR7/8/9” (BRISTOL-MYERS SQUIBB COMPANY, priority 2017, dated 2022).

Type in all cases: cell-based
The target of assay [1] is T1, human TLR9 (Homo sapiens, UniProt Q9NR96).
T1 construct: host or cells: HEK-Blue cells
T1 sequence (Q9NR96 26-1032): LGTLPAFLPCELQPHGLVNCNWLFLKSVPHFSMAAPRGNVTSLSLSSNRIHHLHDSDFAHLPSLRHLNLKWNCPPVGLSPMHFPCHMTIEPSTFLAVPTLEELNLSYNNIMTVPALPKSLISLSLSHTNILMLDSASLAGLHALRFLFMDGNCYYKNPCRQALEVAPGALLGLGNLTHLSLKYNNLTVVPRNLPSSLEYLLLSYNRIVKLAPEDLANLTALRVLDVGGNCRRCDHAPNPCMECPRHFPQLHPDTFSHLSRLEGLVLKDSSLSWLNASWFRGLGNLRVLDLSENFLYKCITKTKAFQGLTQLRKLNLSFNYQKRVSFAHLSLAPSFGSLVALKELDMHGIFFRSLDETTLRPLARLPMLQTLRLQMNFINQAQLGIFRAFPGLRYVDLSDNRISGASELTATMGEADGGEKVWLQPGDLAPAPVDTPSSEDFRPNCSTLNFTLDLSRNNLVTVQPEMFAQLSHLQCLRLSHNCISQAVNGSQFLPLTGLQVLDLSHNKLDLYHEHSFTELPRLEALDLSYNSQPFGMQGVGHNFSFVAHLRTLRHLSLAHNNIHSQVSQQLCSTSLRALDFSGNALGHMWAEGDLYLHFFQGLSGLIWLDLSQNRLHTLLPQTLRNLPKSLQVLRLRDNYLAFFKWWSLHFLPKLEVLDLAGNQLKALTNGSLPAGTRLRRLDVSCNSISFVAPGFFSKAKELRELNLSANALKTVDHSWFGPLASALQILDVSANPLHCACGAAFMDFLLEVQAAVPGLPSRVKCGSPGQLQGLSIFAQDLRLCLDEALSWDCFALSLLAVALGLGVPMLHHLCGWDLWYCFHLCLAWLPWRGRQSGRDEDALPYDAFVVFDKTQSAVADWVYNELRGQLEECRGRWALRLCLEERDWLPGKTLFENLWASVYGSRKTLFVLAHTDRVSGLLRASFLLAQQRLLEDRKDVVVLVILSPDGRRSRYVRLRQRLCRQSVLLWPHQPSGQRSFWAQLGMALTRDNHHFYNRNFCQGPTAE
In words: TLR9 inhibition reporter assay (HEK-Blue SEAP reporter, ODN2006 stimulation). To be noted: HEK-Blue cells overexpressing human TLR9, SEAP reporter, ODN2006 5 nM, 22 hour incubation. Summed up: (§1)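 Compound treatment: 30 min, RT, 0.05 nM–50 μM final. Agonist: TLR7 gardiquimod 7.5 μM; TLR8 R848 15.9 μM; TLR9 ODN2006 5 nM. Incubation 22 h, 37 °C, 5% CO2. Readout SEAP, HEK-Blue Detection.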
On the technique in general: Reporter assays use an easily measured gene product as a stand-in for the process of interest.

The target in assay [2] is T2, human TLR8 (Homo sapiens, UniProt Q9NR97).
T2 construct: host or cells: HEK-Blue cells
T2 sequence (Q9NR97 27-1041): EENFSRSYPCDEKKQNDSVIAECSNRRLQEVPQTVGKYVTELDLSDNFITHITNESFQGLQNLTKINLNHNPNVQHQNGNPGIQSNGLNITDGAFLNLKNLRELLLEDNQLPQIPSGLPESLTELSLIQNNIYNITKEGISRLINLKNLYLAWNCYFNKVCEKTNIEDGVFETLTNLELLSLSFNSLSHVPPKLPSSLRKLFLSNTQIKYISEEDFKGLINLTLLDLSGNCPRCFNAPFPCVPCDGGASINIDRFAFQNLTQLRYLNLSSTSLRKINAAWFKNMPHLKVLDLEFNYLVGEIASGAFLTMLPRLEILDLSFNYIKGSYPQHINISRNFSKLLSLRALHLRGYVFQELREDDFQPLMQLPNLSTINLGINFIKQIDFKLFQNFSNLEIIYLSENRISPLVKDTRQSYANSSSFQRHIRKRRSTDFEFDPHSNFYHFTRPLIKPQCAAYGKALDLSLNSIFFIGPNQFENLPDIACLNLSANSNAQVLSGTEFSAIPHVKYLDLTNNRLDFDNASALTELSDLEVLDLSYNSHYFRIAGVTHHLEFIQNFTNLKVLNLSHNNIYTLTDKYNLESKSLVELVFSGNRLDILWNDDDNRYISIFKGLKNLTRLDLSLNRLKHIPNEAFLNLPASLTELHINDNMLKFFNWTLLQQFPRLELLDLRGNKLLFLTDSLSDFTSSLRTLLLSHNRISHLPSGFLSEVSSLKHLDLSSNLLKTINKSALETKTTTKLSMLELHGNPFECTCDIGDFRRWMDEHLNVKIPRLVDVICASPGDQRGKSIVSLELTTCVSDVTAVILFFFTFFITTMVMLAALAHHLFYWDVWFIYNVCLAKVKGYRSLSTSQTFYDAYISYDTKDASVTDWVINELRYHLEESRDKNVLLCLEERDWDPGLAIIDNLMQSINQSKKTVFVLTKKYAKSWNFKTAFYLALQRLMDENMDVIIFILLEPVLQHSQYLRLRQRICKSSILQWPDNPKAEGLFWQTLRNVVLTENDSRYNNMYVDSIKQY
Put plainly: TLR8 inhibition reporter assay (HEK-Blue SEAP reporter, R848 stimulation). To be noted: HEK-Blue cells overexpressing human TLR8, SEAP reporter, R848 15.9 μM, 22 hour incubation. The essentials: as §1

The target of assay [3] is T3, human TLR7 (Homo sapiens, UniProt Q9NYK1).
T3 construct: host or cells: HEK-Blue cells
T3 sequence (Q9NYK1 27-1049): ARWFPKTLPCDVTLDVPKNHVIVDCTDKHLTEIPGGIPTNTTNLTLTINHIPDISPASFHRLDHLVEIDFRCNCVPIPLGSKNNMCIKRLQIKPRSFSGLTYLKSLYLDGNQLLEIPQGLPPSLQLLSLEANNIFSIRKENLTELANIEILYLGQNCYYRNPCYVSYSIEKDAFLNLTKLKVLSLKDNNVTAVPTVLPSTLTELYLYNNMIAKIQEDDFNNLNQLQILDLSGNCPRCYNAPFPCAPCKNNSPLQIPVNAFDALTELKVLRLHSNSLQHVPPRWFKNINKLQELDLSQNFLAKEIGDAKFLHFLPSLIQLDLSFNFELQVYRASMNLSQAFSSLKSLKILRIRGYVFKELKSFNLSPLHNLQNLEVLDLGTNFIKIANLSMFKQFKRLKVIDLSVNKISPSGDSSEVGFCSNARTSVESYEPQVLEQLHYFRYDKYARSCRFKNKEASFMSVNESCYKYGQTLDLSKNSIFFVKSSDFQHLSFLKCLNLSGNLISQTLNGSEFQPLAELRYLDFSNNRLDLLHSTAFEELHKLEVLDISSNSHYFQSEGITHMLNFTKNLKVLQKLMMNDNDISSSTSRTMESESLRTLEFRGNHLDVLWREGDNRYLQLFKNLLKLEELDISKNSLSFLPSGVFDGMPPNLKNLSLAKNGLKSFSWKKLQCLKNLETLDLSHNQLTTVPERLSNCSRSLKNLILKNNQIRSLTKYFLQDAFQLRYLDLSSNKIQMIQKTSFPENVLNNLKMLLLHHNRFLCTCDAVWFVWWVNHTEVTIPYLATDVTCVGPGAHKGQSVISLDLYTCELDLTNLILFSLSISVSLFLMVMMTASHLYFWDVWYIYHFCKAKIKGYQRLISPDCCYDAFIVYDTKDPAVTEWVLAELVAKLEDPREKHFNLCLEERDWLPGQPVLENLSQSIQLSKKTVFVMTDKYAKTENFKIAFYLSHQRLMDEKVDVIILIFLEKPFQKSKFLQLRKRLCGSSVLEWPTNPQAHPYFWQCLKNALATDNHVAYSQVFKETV
In words: TLR7 inhibition reporter assay (HEK-Blue SEAP reporter, gardiquimod stimulation). To be noted: HEK-Blue cells overexpressing human TLR7, SEAP reporter, gardiquimod 7.5 μM, 22 hour incubation. Summed up:
as §1

The structures appear in SMILES notation. pIC50: −log10 of the molar value.

For `Cc1c(-c2[nH]c3ccc(C4CCN(C(C)C)CC4)cc3c2C(C)C)cn(C)c(=O)c1-c1cccnc1` [Example 237, 5-(3-isopropyl-5-(1-isopropylpiperidin-4-yl)-1H-indol-2-yl)-1,4-dimethyl-[3,3′-bipyridin]-2(1H)-one], the pIC50 (usually the negative decadic logarithm of the IC50, by convention in mol/L) is 5.68 in assay [1], 7.70 in assay [2] and 6.74 in assay [3].
As for `CCn1nc(-c2[nH]c3ccc(C4CCNCC4)cc3c2C(C)C)cc(C)c1=O` [Example 18, 2-ethyl-6-(3-isopropyl-5-(piperidin-4-yl)-1H-indol-2-yl)-4-methylpyridazin-3(2H)-one], the figures for the pIC50 in assay [1], in assay [2] and in assay [3] were 5.18, 7.83 and 7.74, respectively.
For `Cc1c(-c2[nH]c3ccc(C4CCN(CCS(C)(=O)=O)CC4)cc3c2C(C)C)cn(C)c(=O)c1Cl` [Example 107, 3-chloro-5-(3-isopropyl-5-(1-(2-(methylsulfonyl)ethyl)piperidin-4-yl)-1H-indol-2-yl)-1,4-dimethylpyridin-2(1H)-one] the same measures were 4.87, 8.36 and 8.18.
For `CC(C)c1c(-c2cc(-c3cncnc3)c(=O)n(C)c2)[nH]c2ccc(C3CCN(C(C)C)CC3)cc12` [Example 244, 5-(3-isopropyl-5-(1-isopropylpiperidin-4-yl)-1H-indol-2-yl)-1-methyl-3-(pyrimidin-5-yl)pyridin-2(1H)-one] the same measures were 6.02, 8.74 and 8.22.
The matching figures for `Cc1nc(-c2[nH]c3ccc(C4CCN(C5CCCOC5)CC4)cc3c2C(C)C)cn(C)c1=O` (stereo not drawn) [Example 187, 5-(3-isopropyl-5-(1-(tetrahydro-2H-pyran-3-yl)piperidin-4-yl)-1H-indol-2-yl)-1,3-dimethylpyrazin-2(1H)-one]: 6.18, 7.52 and 7.07.
Regarding `Cc1c(-c2[nH]c3ccc(C4CCN(CCC(C)C)CC4)cc3c2C(C)C)cn(C)c(=O)c1Cl` [Example 91, 3-chloro-5-(5-(1-isopentylpiperidin-4-yl)-3-isopropyl-1H-indol-2-yl)-1,4-dimethylpyridin-2(1H)-one], the pIC50 in assay [1] was 5.36; in assay [2], 8.30; in assay [3] it was 8.59.
For `CC(C)c1c(-c2ccc(=O)n(C)c2)[nH]c2ccc(C3CCN(C4CCOC4)CC3)cc12` (stereo not drawn) [Example 177, 5-(3-isopropyl-5-(1-(tetrahydrofuran-3-yl)piperidin-4-yl)-1H-indol-2-yl)-1-methylpyridin-2(1H)-one] the same measures were 5.04, 7.28 and 6.81.
The matching figures for `COCCN1CCC(c2ccc3[nH]c(-c4cc(-c5ccc(C)nc5)c(=O)n(C)c4)c(C(C)C)c3c2)CC1` [Example 349, 5-(3-isopropyl-5-(1-(2-methoxyethyl)piperidin-4-yl)-1H-indol-2-yl)-1,6′-dimethyl-[3,3′-bipyridin]-2(1H)-one]: 6.11, 7.14 and 7.84.
For `CC(C)c1c(-c2cc(-c3cncnc3)c(=O)n(C)c2)[nH]c2ccc(C3CCN(CC4CCOCC4)CC3)cc12` [Example 100, 5-(3-isopropyl-5-(1-((tetrahydro-2H-pyran-4-yl)methyl)piperidin-4-yl)-1H-indol-2-yl)-1-methyl-3-(pyrimidin-5-yl)pyridin-2(1H)-one] the same measures were 5.51, 8.64 and 7.67.
As to `Cc1cc(-c2[nH]c3ccc(C4CCN(Cc5ccn(C)n5)CC4)cc3c2C(C)C)cn(C)c1=O` [Example 195, 5-(3-isopropyl-5-(1-((1-methyl-1H-pyrazol-3-yl)methyl)piperidin-4-yl)-1H-indol-2-yl)-1,3-dimethylpyridin-2(1H)-one], the pIC50 was 5.28 in assay [1], 8.59 in assay [2] and 8.41 in assay [3].
The matching figures for `CC(C)c1c(-c2cc(-c3cccc(C(N)=O)c3)c(=O)n(C)c2)[nH]c2ccc(C3CCNCC3)cc12` [Example 58, 3-(5-(3-isopropyl-5-(piperidin-4-yl)-1H-indol-2-yl)-1-methyl-2-oxo-1,2-dihydropyridin-3-yl)benzamide]: 5.46, 6.65 and 8.27.
The matching figures for `CC(C)CN1CCC(c2ccc3[nH]c(-c4cc(-c5cncnc5)c(=O)n(C)c4)c(C(C)C)c3c2)CC1` [Example 256, 5-(5-(1-isobutylpiperidin-4-yl)-3-isopropyl-1H-indol-2-yl)-1-methyl-3-(pyrimidin-5-yl)pyridin-2(1H)-one]: 5.83, 8.77 and 7.91.
